Patent US5964224A, “Method for treating amyotrophic lateral sclerosis and a therapeutic agent therefor” (priority 1997, dated 1999)
Entries after “also recorded” stand apart in the source; their conditions may differ.

Experiments:
patients with ALS [1] = details: cited from earlier work; for potency in improving the clinical symptoms or prolonging life: patients with ALS; for beneficial effects in ALS: anecdotal or preliminary observations
beagles [2] = details: 90 days, cited from earlier work
rat [3] = details: 20 mg/kg/day i.p. (organogenesis) or 50 mg/kg i.v. (pre-gestation to postnatal); cited from earlier work
rabbit = details: 50 mg/kg/day, organogenesis; cited from earlier work
patients with ALS [4] = assay: Clinical symptoms (gait, weakness) and duration of benefit in ALS patients; type: in vivo, human
Experimental: (§1) A total of 24 ALS patients without respiratory failure entered the study after giving an informed consent for the protocol approved by the Institutional Review Board. Twelve of them (High Dose Group; age 45-66 years, 5 men) received the ultra-high dose (25 mg/day or 360-610 μg/kg/day, i.m.) methylcobalamin and the other 12 (Low Dose Group; age 41-66 years, 6 men) received the low dose (0.5 mg/day or […],i.m.) as a control. The two groups were matched for age, disease durations (19.6±4.1 versus 21.7±3.2 months) and initial averaged CHAP amplitudes (5.27±0.84 versus 4.48±0.91 mV). The patients were blinded as to the dose. The examiner, who was not informed of the dose, measured CMAPs immediately before starting methylcobalamin (day 1), at the end of 2 weeks of administration (day 14) and at 4 weeks after the start (day 28).

[5] = intramuscular versus intravenous route; cited from earlier work
patients with ALS [6] = assay: Adverse reactions in ALS patients (clinical trial); type: in vivo, human
Experimental: (§2) To develop a symptomatic treatment for amyotrophic lateral sclerosis, I have compared the effects of ultra-high dose and low dose (25 mg/day and 0.5 mg/day, i.m. for 14 days) of methylcobalamin on the averaged compound muscle action potential amplitudes, which serve as an index of muscle power, in a double-blind trial.
as §1

patient with ALS = assay: Time course of averaged CMAP amplitude in a patient with ALS given 50 mg/day; type: in vivo, human; details: day 0 through 13, one patient
Experimental: (§3) […] were recorded bilaterally from the abductor pollicis brevis, abductor digiti minimi and abductor hallucis muscles after stimulation of the median, ulnar and tibial nerves at the wrist or at the ankle. Amplitudes were measured from the baseline to the negative peak. In each patient, the average amplitude from the six muscles (averaged CMAPs) served as an index of the number of muscle fibers innervated by spinal motoneurons. The method employed was that of Kelly et al.[Muscle Nerve 10, 471-179 (1990)] and Kimura [in Electrodiagnosis in diseases of nerve and muscle: principles and practice, 2nd edition, F. A. Davis ed.(1989), pages 85-87], the disclosures of which are incorporated herein by reference.
These clinical benefits and improved CMAPs usually lasted for 1-3 months, then followed by deterioration. […] Serial changes of averaged CMAP amplitudes in low dose (0.5 mg/day i.m., n=12) group and high dose (25 mg/day i.m., n=12) group were examined. Methylcobalamin was given during day 0 through day 13. […] The time course of averaged CMAP amplitude changes in a patient with ALS who was given 50 mg/day of methylcobalamin during day 0 day through 13 was examined.

patients with ALS [7] = assay: Averaged CMAP amplitudes before and after treatment in ALS patients, 0.5 mg/day i.v., 15 mg/day i.v. and 25 mg/day i.m. groups; type: in vivo, human
Experimental: as §3
CMAP amplitudes were averaged in 10 patients with ALS treated with a low dose of methycobalamin (0.5 mg/day i.v. for 2 weeks). Those before the treatment and those 2 weeks after the completion of the treatment were compared.
CMAP amplitudes were averaged in 12 patients with ALS treated with a high dose of methylcobalamin (15 mg/day i.v. for 2 weeks). Those before the treatment, those at the end of the treatment and those 2 weeks after the completion of the treatment were compared.
CMAP amplitudes were averaged in 12 patients with ALS treated with an ultra-high dose of methylcobalamin (25 mg/day i.m. for 2 weeks). Those before the treatment, those at the end of the treatment and those 2 weeks after the completion of the treatment were compared.
The ratio of averaged CMAP amplitudes at 2 weeks after the completion of the treatment (after 4 wks) was compared with those before the treatment.

mouse = details: 20 mg/kg/day i.p., organogenesis; cited from earlier work
rats = details: 0.5, 5.0 and 20.0 mg/kg/day i.p., 30 days; cited from earlier work
patients with ALS [8] = assay: Double-blind trial: averaged compound muscle action potential (CMAP) amplitudes in ALS patients, ultra-high versus low dose i.m.; type: in vivo, human
Experimental: as §2, §3, §1

rat [9] = details: same doses as subacute, 6 months; cited from earlier work
animals = details: cited from earlier work
beagles [10] = details: 50.0 mg/kg/day, 6 months, cited from earlier work
[11] = degraded into hydoxycobalamin; cited from earlier work
[12] = High Dose Group, 25 mg/day i.m., n=12

Q: For `COc1ccc2c(c1)[C@]13CCCC[C@@H]1[C@H](C2)N(C)CC3` [dextromethorphan], which “potency in improving the clinical symptoms or prolonging life” value (“potency” for short) (patients with ALS [1]) is on record?
A: not yet convincingly shown their potency

Q: Which “potency” value (patients with ALS [1]) does the source give for superoxide dismutase here?
A: not yet convincingly shown their potency

Q: Which “beneficial effects in ALS” value (patients with ALS [1]) does the source give for `O=P1(N(CCCl)CCCl)NCCCO1` (stereo not shown) [cyclophosphamide] here?
A: beneficial effects

Q: What does the source list for `C/C1=C2/[N-][C@H]([C@H](CC(N)=O)[C@@]2(C)CCC(=O)NC[C@@H](C)OP(=O)([O-])O[C@H]2[C@@H](O)[C@@H](n3cnc4cc(C)c(C)cc43)O[C@@H]2CO)[C@]2(C)N=C(/C(C)=C3N=C(/C=C4N=C1[C@@H](CCC(N)=O)C\4(C)C)[C@@H](CCC(N)=O)[C@]\3(C)CC(N)=O)[C@@H](CCC(N)=O)[C@]2(C)CC(N)=O.[CH3-].[Co+3]` [methylcobalamin]?
A: epididymis findings (beagles [2]; 50.0 mg/kg/day i.v., a dog): No changes were noted in the epidydimis; histological finding in the kidney (beagles [2]; 50.0 mg/kg/day i.v., a dog): increased eosinophilic granules in the proximal tubules in the kidney; subacute toxicity findings (beagles [2]; 0.5, 5.0 and 50.0 mg/kg/day i.v.): normal findings; changes in the embryo, the fetus or the neonate (rat [3]): no significant changes in the embryo, the fetus or the neonate; changes in the embryo, the fetus or the neonate (rabbit): no significant changes in the embryo, the fetus or the neonate; subjective weakness (patients with ALS [4]; 15-500 mg/day, i.m., s.c. or i.v. for 14 days (summary statement)): improves the subjective weakness; improvement in gait and weakness (patients with ALS [4]; [12]): Two patients in High Dose Group noted an improvement in gait and weakness; duration of clinical benefits and improved CMAPs (patients with ALS [4]; High Dose Group, 25 mg/day i.m., then followed by deterioration): 1-3 months; improvement of clinical symptoms and objective clinical measure (patients with ALS [4]; ultra-high dose, ALS patients): improvement of both clinical symptoms and an objective clinical measure; half life in the blood level [5]: longer half life in the blood level; adverse reactions: elevation of serum GOT and GPT (patients with ALS [6]; [12]): mild elevation of serum GOT and GPT in another; adverse reactions: skin rash (patients with ALS [6]; [12]): skin rash in one patient; duration of adverse reactions (skin rash; GOT/GPT elevation) (patients with ALS [6]; High Dose Group, 25 mg/day i.m., both): about a week; major side effects (patients with ALS [6]; clinical trial, 25 mg/day and 0.5 mg/day i.m. for 14 days): No major side effects were seen; time course of averaged CMAP amplitude (patient with ALS): abrupt increase of the amplitude during and after the treatment; change in averaged CMAP amplitude (patients with ALS [7]; 0.5 mg/day i.v. for 2 weeks, 10 patients, 2 weeks after completion vs before): No significant changes were found; change in averaged CMAP amplitude (patients with ALS [7]; 15 mg/day i.v. for 2 weeks, 12 patients, before, end, 2 weeks after completion): tendency toward increase of CMAPs at 2 weeks after the completion of the treatment, no statistically significant differences were found; change in averaged CMAP amplitude (patients with ALS [7]; 25 mg/day i.m. for 2 weeks, 12 patients, 2 weeks after completion): statistically significant increase of CMAPs at 2 weeks after the completion of the treatment; ratio of averaged CMAP amplitudes 2 weeks after completion to before treatment, ultra-high versus low dose group (patients with ALS [7]; 25 mg/day i.m. versus 0.5 mg/day i.v., 2 weeks, FIG. 1): statistically significant difference; p value, ratio of averaged CMAP amplitudes between groups (patients with ALS [7]; 25 mg/day i.m. versus 0.5 mg/day i.v., unpaired t-test): < 0.05; changes in the embryo, the fetus or the neonate (mouse): no significant changes in the embryo, the fetus or the neonate; general conditions, body weight, blood and urine chemistry, organ weights and histological findings (rats): no significant changes in the general conditions, body weight, blood and urine chemistry, organ weights and histological findings; ratio of averaged CMAP amplitude at day 14 or day 28 to that at day 0 (patients with ALS [8]; 25 mg/day and 0.5 mg/day i.m., n=12 each): only the high dose group showed a significant increase in the ratio at day 28; change in averaged CMAP amplitude (patients with ALS [8]; 25 mg/day i.m., at 2 weeks (day 14)): not at 2 weeks; CMAP amplitude ratio between day zero and day 28, High Dose versus Low Dose Group (patients with ALS [8]; 25 mg/day versus 0.5 mg/day i.m.): significantly higher ratio than Low Dose Group; parameter of muscle power (CMAPs) (patients with ALS [8]; 15-500 mg/day, i.m., s.c. or i.v. for 14 days, low dose as control (summary statement)): significantly increases the parameter of muscle power; change in averaged CMAP amplitude (patients with ALS [8]; low dose 0.5 mg/day i.m. for 14 days, at 2 or 4 weeks): No significant changes in CMAP amplitude; change in averaged CMAP amplitude (patients with ALS [8]; low dose 0.5 mg/day i.m. for 14 days, at 2 or 4 weeks, listed as Methylcobalamin): no significant changes in CMAP amplitude; change in averaged CMAP amplitude (patients with ALS [8]; ultra-high dose 25 mg/day i.m. for 14 days, at 4 weeks (day 28)): significant increase at 4 weeks; also recorded: increase of averaged CMAP amplitudes at day 28; change in averaged CMAP amplitude (patients with ALS [8]; ultra-high dose 25 mg/day i.m. for 14 days, at 4 weeks (day 28), listed as Methylcobalamin): significant increase at 4 weeks; chronic toxicity findings (rat [9]): No significant changes were found; major side effects (animals; 50 mg/kg/day, animals): no major side effects have been observed; edema and redness of the skin (animals; 50 mg/kg/day, on rare occasions): transient edema and redness of the skin; red urine (animals; disappears after discontinuing the administration): Red urine may be found, but it soon disappears; Kupffer cells in the liver (beagles [10]): increased number of Kuppfer cells in the liver; lysosomes, electron microscopy (beagles [10]): increase in lysosomes; mesangial cells in the renal glomeruli (beagles [10]): lysosomal increase in the mesangeal cells in the renal glomeruli; kidney proximal tubules, light microscopy (beagles [10]; only this dose): increased eosinophilic granules in the proximal tubules in the kidney; light sensitivity [11]: light-sensitive, and is easily degraded into hydoxycobalamin

Q: For vitamin E, which “potency” value (patients with ALS [1]) is on record?
A: not yet convincingly shown their potency

Q: For IGF-1: insulin-like growth factor-1, which “beneficial effects in ALS” value (patients with ALS [1]) is on record?
A: beneficial effects

Q: Which “prolongation of life without tracheostomy” value (patients with ALS [1]; a subgroup of ALS) does the source give for `Nc1nc2ccc(OC(F)(F)F)cc2s1` [riluzole] here?
A: 1-3 months

B1: ciliary neurotrophic factor: ciliary neurotrophic factor (protein, UniProt P26441 1-200, looked up)
Ciliary neurotrophic factor: MAFTEHSPLTPHRRDLCSRSIWLARKIRSDLTALTESYVKHQGLNKNINLDSADGMPVASTDQWSELTEAERLQENLQAYRTFHVLLARLLEDQQVHFTPTEGDFHQAIHTLLLQVAAFAYQIEELMILLEYKIPRNEADGMPINVGDGGLFEKKLWGLKVLQELSQWTVRSIHDLRFISSHQTGIPARGSHYIANNKKM
Q: Which “potency” value (patients with ALS [1]) does the source give for B1 here?
A: not yet convincingly shown their potency
